# According to patent US10463671B2, “Combination therapy for treating cancer” (Epizyme, Inc., priority 2013, dated 2019):
# How the values were obtained:
# DOHH2 cells = assay: Medium throughput combination proliferation assay (CellTiter-Glo, Chou-Talalay CI / potency shift); settings: DOHH2 EZH2 wild-type cells
# [1] = test system: glucocorticoid signaling genes in WSU-DLCL2 cells; assay: RT2 Glucocorticoid Signaling PCR array; format: cell-based; settings: WSU cell line, 4 days
structure (smiles),measurement,setting,value
CCN(c1cc(-c2ccc(CN3CCOCC3)cc2)cc(C(=O)NCc2c(C)cc(C)[nH]c2=O)c1C)C1CCOCC1 [Compound 44],anti-proliferative effect as a single agent,DOHH2 cells,no anti-proliferative effect
same,AK2 Ct Values,[1],21.365
same,ANXA4 Ct Values,[1],24.659
same,ARID5B Ct Values,[1],26.126
same,BCL6 Ct Values,[1],20.795
same,CEBPB Ct Values,[1],26.770
same,CREB3L4 Ct Values,[1],24.392
same,EHD3 Ct Values,[1],24.270
same,IL6R Ct Values,[1],33.814
same,MT2A Ct Values,[1],23.499
same,NFKBIA Ct Values,[1],23.807
same,PER2 Ct Values,[1],24.837
same,POU2F2 Ct Values,[1],22.678
same,RASA3 Ct Values,[1],23.208
same,RHOB Ct Values,[1],27.234
same,SLC22A5 Ct Values,[1],26.640
same,SNTA1 Ct Values,[1],24.181
same,SPSB1 Ct Values,[1],26.952
same,TNFAIP3 Ct Values,[1],26.903
same,TSC22D3 Ct Values,[1],25.390
same,ZFP36 Ct Values,[1],25.541
same,ZNF2B1 Ct Values,[1],23.913
same,RPLP0 Ct Values,[1]; housekeeping gene,15.681
same,HPRT1 ΔCT (B2M),"[1]; housekeeping gene, normalized to B2M",3.108
same,AMPD3 ΔCT (B2M),[1]; normalized to B2M,7.477
same,GHRHR ΔCT (B2M),[1]; normalized to B2M,20.272
same,GOT1 ΔCT (B2M),[1]; normalized to B2M,4.142
same,SLC10A6 ΔCT (B2M),[1]; normalized to B2M,15.999
same,SLC19A2 ΔCT (B2M),[1]; normalized to B2M,6.440
same,SLC22A5 ΔCT (B2M),[1]; normalized to B2M,6.955
same,ZNF2B1 ΔCT (B2M),[1]; normalized to B2M,4.228
same,B2M ΔCT (B2M),"[1]; normalizer gene, normalized to B2M",0.000
same,BCL6 ΔΔCT,[1]; vs DMSO,−0.394
same,CREB1 ΔΔCT,[1]; vs DMSO,0.008
same,CREB3L4 ΔΔCT,[1]; vs DMSO,−0.915
same,CREB3 ΔΔCT,[1]; vs DMSO,−0.085
same,DDIT4 ΔΔCT,[1]; vs DMSO,−0.060
same,GOT1 ΔΔCT,[1]; vs DMSO,0.708
same,HNRPLL ΔΔCT,[1]; vs DMSO,−0.037
same,IL1RN ΔΔCT,[1]; vs DMSO,−4.453
same,PDP1 ΔΔCT,[1]; vs DMSO,−0.380
same,PIK3R1 ΔΔCT,[1]; vs DMSO,0.363
same,POU2F2 ΔΔCT,[1]; vs DMSO,−0.680
same,STAT5A ΔΔCT,[1]; vs DMSO,−0.307
same,USP54 ΔΔCT,[1]; vs DMSO,0.023
same,VLDLR ΔΔCT,[1]; vs DMSO,3.859
